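Tested at 5 concentrations; 48 h exposure; 96-well plates; endpoints linearly interpolated, else capped at highest concentration. GI50 marks 50% less growth. TGI marks complete inhibition of growth.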
Experiments:
Assay in all cases: inhibition of tumour cell growth, NCI panel, 48 h
[1] = system: HS 578T breast
[2] = system: HCT-116 colon
[3] = system: CAKI-1 renal
[4] = system: MDA-MB-435
[5] = system: HL-60(TB) leukemia
[6] = system: K-562 leukemia
[7] = system: HCC-2998 colon
[8] = system: MDA-MB-231 breast
[9] = system: SW-620 colon
[10] = system: NCI-H460 lung
[11] = system: SNB-19 CNS
[12] = system: EKVX NSCLC
[13] = system: SF-268 CNS
[14] = system: RPMI-8226 leukemia
[15] = system: SF-539 CNS
[16] = system: SN12C renal
[17] = system: DU-145 prostate
[18] = system: T-47D breast
[19] = system: A498 renal
[20] = system: ACHN renal
[21] = system: KM12 colon
[22] = system: OVCAR-3 ovarian
[23] = system: SK-MEL-28 melanoma
[24] = system: UO-31 renal
[25] = system: M14 melanoma
[26] = system: UACC-62 melanoma
[27] = system: NCI/ADR-RES ovarian
[28] = system: TK-10 renal
[29] = system: MALME-3M melanoma
[30] = system: HOP-62 NSCLC
[31] = system: PC-3 prostate
[32] = system: SF-295 CNS
[33] = system: SK-MEL-5 melanoma
[34] = system: OVCAR-4 ovarian
[35] = system: HT29 colon
[36] = system: RXF 393 renal
[37] = system: IGROV1 ovarian
[38] = system: MOLT-4 leukemia
[39] = system: A549 NSCLC
[40] = system: SK-OV-3 ovarian
[41] = system: OVCAR-8 ovarian
[42] = system: COLO 205 colon
[43] = system: BT-549 breast
[44] = system: 786-0 renal
[45] = system: SNB-75 CNS
[46] = system: OVCAR-5 ovarian
[47] = system: HCT-15 colon
[48] = system: MCF7 breast
[49] = system: NCI-H23 lung
[50] = system: LOX IMVI melanoma
[51] = system: NCI-H226 lung
[52] = system: CCRF-CEM leukemia
[53] = system: SR leukemia
[54] = system: U251 CNS
[55] = system: NCI-H522 lung
[56] = system: HOP-92 NSCLC
[57] = system: UACC-257 melanoma
[58] = system: SK-MEL-2 melanoma

COc1cc(C2C3=C(COC3=O)N(CCO)c3cc4c(cc32)OCO4)cc(OC)c1O (stereo unspecified) was tested, and the GI50 [1] was 1.3 µM, the TGI [1] was 4.59 µM and the GI50 [2] was 1.88 µM. For the same compound, the TGI [2] was greater than 26.3 µM, the GI50 [3] was 5.4 µM and the TGI [3] was greater than 41 µM. The GI50 [4] was 0.343 µM, the TGI [4] was 1.53 µM and the GI50 [5] was 1.32 µM. For the same compound, the TGI [5] was 3.26 µM, the GI50 [6] was 1.49 µM and the TGI [6] was greater than 50 µM. For the same compound, the GI50 [7] was 1.53 µM, the TGI [7] was 4.65 µM and the GI50 [8] was 6.07 µM. The TGI [8] was 46.2 µM, the GI50 [9] was 1.71 µM and the TGI [9] was greater than 50 µM. It also gave a GI50 [10] of 1.69 µM, a TGI [10] greater than 15.9 µM and a GI50 [11] of 2.27 µM. For the same compound, the TGI [11] was greater than 18.8 µM, the GI50 [12] was 4.36 µM and the TGI [12] was greater than 50 µM. For the same compound, the GI50 [13] was 2.18 µM, the TGI [13] was greater than 50 µM and the GI50 [14] was 1.57 µM. For the same compound, the TGI [14] was greater than 50 µM, the GI50 [15] was 1.47 µM and the TGI [15] was greater than 13.6 µM. The GI50 [16] was greater than 12.1 µM, the TGI [16] was greater than 50 µM and the GI50 [17] was 1.58 µM. For the same compound, the TGI [17] was 7.22 µM, the GI50 [18] was 1.97 µM and the TGI [18] was greater than 50 µM. The GI50 [19] was 1.16 µM, the TGI [19] was 3.92 µM and the GI50 [20] was greater than 13.5 µM. For the same compound, the TGI [20] was greater than 50 µM, the GI50 [21] was 1.35 µM and the TGI [21] was greater than 20.6 µM. It also gave a GI50 [22] of 0.982 µM, a TGI [22] of 2.22 µM and a GI50 [23] greater than 50 µM. For the same compound, the TGI [23] was greater than 50 µM, the GI50 [24] was 2.02 µM and the TGI [24] was greater than 37.2 µM. For the same compound, the GI50 [25] was 1.49 µM, the TGI [25] was 7.64 µM and the TGI [26] was greater than 50 µM. The GI50 [27] was 11.3 µM, the TGI [27] was greater than 50 µM and the GI50 [28] was 4.54 µM. For the same compound, the TGI [28] was greater than 50 µM, the GI50 [29] was 1.96 µM and the TGI [29] was greater than 50 µM. For the same compound, the GI50 [30] was 2.35 µM, the TGI [30] was greater than 50 µM and the GI50 [31] was 1.54 µM. The TGI [31] was greater than 50 µM, the GI50 [32] was 1.47 µM and the TGI [32] was greater than 14.6 µM. For the same compound, the GI50 [33] was 0.832 µM, the TGI [33] was 3.42 µM and the GI50 [34] was 2.99 µM. For the same compound, the TGI [34] was greater than 50 µM, the GI50 [35] was 1.38 µM and the TGI [35] was 5.32 µM. For the same compound, the GI50 [36] was 0.576 µM, the TGI [36] was 2.11 µM and the GI50 [37] was 1.47 µM. For the same compound, the TGI [37] was 6.08 µM, the GI50 [38] was 2.15 µM and the TGI [38] was greater than 24.9 µM. The GI50 [39] was 5.62 µM, the TGI [39] was greater than 50 µM and the GI50 [40] was 2.03 µM. It also gave a TGI [40] greater than 26.7 µM, a GI50 [41] of 3.17 µM and a TGI [41] greater than 50 µM. The GI50 [42] was 1.48 µM, the TGI [42] was 4.07 µM and the GI50 [43] was 2.28 µM. It also gave a TGI [43] greater than 34.3 µM, a GI50 [44] of 2.02 µM and a TGI [44] greater than 50 µM. For the same compound, the GI50 [45] was 1.12 µM, the TGI [45] was 3.51 µM and the GI50 [46] was 23.1 µM. It also gave a TGI [46] greater than 50 µM, a GI50 [47] of 8.01 µM and a TGI [47] greater than 50 µM. For the same compound, the GI50 [48] was 1.19 µM, the TGI [48] was greater than 50 µM and the GI50 [49] was 1.84 µM. It also gave a TGI [49] greater than 38 µM, a GI50 [50] of 2.5 µM and a TGI [50] greater than 50 µM. It also gave a GI50 [51] of 3.72 µM, a TGI [51] greater than 50 µM and a GI50 [52] of 1.51 µM. It also gave a TGI [52] greater than 50 µM, a GI50 [53] of 0.611 µM and a TGI [53] greater than 11.9 µM. The GI50 [54] was 2.19 µM, the TGI [54] was greater than 50 µM and the GI50 [55] was 0.0267 µM. The TGI [55] was 0.289 µM.
O=C(NCc1ccco1)c1cccc(NC2=C(Cl)C(=O)N(Cc3ccccc3)C2=O)c1 showed a GI50 [56] of 7.91 µM, a TGI [56] of 33 µM and a GI50 [1] of 15.4 µM. The TGI [1] was greater than 100 µM, the GI50 [2] was 3.86 µM and the TGI [2] was 15.1 µM. It also gave a GI50 [3] of 0.232 µM, a TGI [3] of 1.45 µM and a GI50 [4] of 2.33 µM. The TGI [4] was 7.39 µM, the GI50 [5] was 5.52 µM and the TGI [5] was 22.3 µM. For the same compound, the GI50 [6] was 5.24 µM, the TGI [6] was greater than 100 µM and the GI50 [7] was 10.8 µM. For the same compound, the TGI [7] was 25.6 µM, the GI50 [57] was 3.86 µM and the TGI [57] was 26.5 µM. It also gave a GI50 [8] of 17.3 µM, a TGI [8] greater than 100 µM and a GI50 [9] of 11.5 µM. For the same compound, the TGI [9] was greater than 100 µM, the GI50 [10] was 92.3 µM and the TGI [10] was greater than 100 µM. It also gave a GI50 [11] of 23.2 µM, a TGI [11] greater than 100 µM and a GI50 [12] of 34.8 µM. For the same compound, the TGI [12] was greater than 100 µM, the GI50 [13] was greater than 100 µM and the TGI [13] was greater than 100 µM. It also gave a GI50 [14] of 1.06 µM, a TGI [14] of 3.29 µM and a GI50 [15] of 3.53 µM. The TGI [15] was 15 µM, the GI50 [16] was 22.1 µM and the TGI [16] was greater than 100 µM. The GI50 [17] was 5.3 µM, the TGI [17] was 24.7 µM and the GI50 [18] was 23.1 µM. The TGI [18] was greater than 100 µM, the GI50 [19] was 17.2 µM and the TGI [19] was 50.8 µM. The GI50 [20] was 9.18 µM, the TGI [20] was 42.3 µM and the GI50 [21] was 6.49 µM. For the same compound, the TGI [21] was 24.5 µM, the GI50 [58] was 3.3 µM and the TGI [58] was 20.7 µM. For the same compound, the GI50 [22] was 2.44 µM, the TGI [22] was 7.71 µM and the GI50 [23] was 16.4 µM. For the same compound, the TGI [23] was 46.6 µM, the GI50 [24] was 3.24 µM and the TGI [24] was 18.6 µM. The GI50 [25] was 11.7 µM, the TGI [25] was 24.6 µM and the GI50 [26] was 12.6 µM. For the same compound, the TGI [26] was 33.3 µM, the GI50 [27] was 6.53 µM and the TGI [27] was 34.3 µM. The GI50 [28] was 3.54 µM, the TGI [28] was 9.18 µM and the GI50 [30] was 13.1 µM. The TGI [30] was 28.5 µM, the GI50 [31] was 5.11 µM and the TGI [31] was 19.6 µM. The GI50 [32] was 1.81 µM, the TGI [32] was 9.4 µM and the GI50 [33] was 5.26 µM. For the same compound, the TGI [33] was 23.3 µM, the GI50 [34] was 6.74 µM and the TGI [34] was 64.3 µM. The GI50 [35] was 18.4 µM, the TGI [35] was greater than 100 µM and the GI50 [36] was 4.22 µM. For the same compound, the TGI [36] was 26.2 µM, the GI50 [37] was 2.44 µM and the TGI [37] was 11 µM. The GI50 [38] was 5.19 µM, the TGI [38] was greater than 100 µM and the GI50 [39] was 19.9 µM. The TGI [39] was greater than 100 µM, the GI50 [40] was 45.8 µM and the TGI [40] was greater than 100 µM. It also gave a GI50 [41] of 8.57 µM, a TGI [41] greater than 100 µM and a GI50 [42] of 16.2 µM. It also gave a TGI [42] of 49.9 µM, a GI50 [43] of 7.29 µM and a TGI [43] of 30.7 µM. For the same compound, the GI50 [44] was 3.94 µM, the TGI [44] was 16.3 µM and the GI50 [45] was 14.1 µM. It also gave a TGI [45] of 87.2 µM, a GI50 [46] of 22.5 µM and a TGI [46] of 63.9 µM. For the same compound, the GI50 [47] was 4.16 µM, the TGI [47] was 24 µM and the GI50 [48] was 11.5 µM. It also gave a TGI [48] greater than 100 µM, a GI50 [49] of 14.7 µM and a TGI [49] of 33.3 µM. It also gave a GI50 [50] of 3.72 µM, a TGI [50] greater than 100 µM and a GI50 [51] of 12.7 µM. The TGI [51] was 62.7 µM, the GI50 [53] was 2.94 µM and the TGI [53] was 19.9 µM. The GI50 [54] was 11.5 µM, the TGI [54] was 60.5 µM and the GI50 [55] was 2.84 µM. The TGI [55] was 20.8 µM.
